# In patent publication US11040981B2, “Pyrrolotriazine compounds and methods of inhibiting TAM kinases” (Syros Pharmaceuticals, Inc., priority 2017, dated 2021):
# What was measured:
# [1] = molecular target: T1, FLT3 (Homo sapiens, UniProt P36888); experiment: TR-FRET kinase activity assay, FLT3; type: biochemical; settings: ATP at Km, 60 minutes
# T1 sequence (P36888 27-993): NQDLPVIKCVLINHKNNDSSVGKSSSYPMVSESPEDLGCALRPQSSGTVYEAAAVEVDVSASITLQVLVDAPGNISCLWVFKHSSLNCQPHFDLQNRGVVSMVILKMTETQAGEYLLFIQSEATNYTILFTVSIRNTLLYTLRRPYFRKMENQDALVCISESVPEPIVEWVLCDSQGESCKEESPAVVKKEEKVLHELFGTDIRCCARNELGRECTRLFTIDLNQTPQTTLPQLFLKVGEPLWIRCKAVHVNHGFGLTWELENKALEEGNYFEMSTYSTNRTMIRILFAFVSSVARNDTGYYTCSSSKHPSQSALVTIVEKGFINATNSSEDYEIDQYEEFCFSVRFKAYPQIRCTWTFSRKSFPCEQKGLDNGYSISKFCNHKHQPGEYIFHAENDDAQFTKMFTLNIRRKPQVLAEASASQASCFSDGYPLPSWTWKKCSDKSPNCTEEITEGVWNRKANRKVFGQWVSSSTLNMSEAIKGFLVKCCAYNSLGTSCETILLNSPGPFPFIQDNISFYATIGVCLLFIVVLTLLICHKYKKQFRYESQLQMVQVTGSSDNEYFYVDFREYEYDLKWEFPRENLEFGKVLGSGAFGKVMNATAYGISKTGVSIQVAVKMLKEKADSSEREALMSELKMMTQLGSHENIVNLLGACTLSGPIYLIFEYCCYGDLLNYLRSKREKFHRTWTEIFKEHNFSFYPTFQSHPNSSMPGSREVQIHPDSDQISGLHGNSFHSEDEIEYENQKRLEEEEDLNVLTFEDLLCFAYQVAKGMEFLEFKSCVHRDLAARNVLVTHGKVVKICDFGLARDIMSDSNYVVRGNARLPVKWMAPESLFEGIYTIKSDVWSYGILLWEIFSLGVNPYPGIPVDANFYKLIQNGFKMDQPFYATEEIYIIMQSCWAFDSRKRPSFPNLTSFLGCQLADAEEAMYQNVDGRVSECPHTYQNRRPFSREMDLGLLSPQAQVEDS
# Procedure, shortened: (§1)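 Compounds were tested against each kinase with ATP set at its own Km and a labelled tyrosine peptide substrate. Following one hour at room temperature in buffer containing 10 mM MgCl2 and 1 mM DTT, phosphorylated product was detected by Europium antibody TR-FRET after EDTA quench, and IC50 values were calculated.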
# [2] = molecular target: T2, MERTK (Homo sapiens, UniProt Q12866); experiment: TR-FRET kinase activity assay, MERTK; type: biochemical; settings: for IC50: TR-FRET activity assay, ATP at Km, 60 minutes, read-out: Mer IC50; for FLT3/Mer ratio (FLT3 IC50/Mer IC50): ratio of Mer to FLT3: FLT3 IC50/Mer IC50
# T2 sequence (Q12866 21-999): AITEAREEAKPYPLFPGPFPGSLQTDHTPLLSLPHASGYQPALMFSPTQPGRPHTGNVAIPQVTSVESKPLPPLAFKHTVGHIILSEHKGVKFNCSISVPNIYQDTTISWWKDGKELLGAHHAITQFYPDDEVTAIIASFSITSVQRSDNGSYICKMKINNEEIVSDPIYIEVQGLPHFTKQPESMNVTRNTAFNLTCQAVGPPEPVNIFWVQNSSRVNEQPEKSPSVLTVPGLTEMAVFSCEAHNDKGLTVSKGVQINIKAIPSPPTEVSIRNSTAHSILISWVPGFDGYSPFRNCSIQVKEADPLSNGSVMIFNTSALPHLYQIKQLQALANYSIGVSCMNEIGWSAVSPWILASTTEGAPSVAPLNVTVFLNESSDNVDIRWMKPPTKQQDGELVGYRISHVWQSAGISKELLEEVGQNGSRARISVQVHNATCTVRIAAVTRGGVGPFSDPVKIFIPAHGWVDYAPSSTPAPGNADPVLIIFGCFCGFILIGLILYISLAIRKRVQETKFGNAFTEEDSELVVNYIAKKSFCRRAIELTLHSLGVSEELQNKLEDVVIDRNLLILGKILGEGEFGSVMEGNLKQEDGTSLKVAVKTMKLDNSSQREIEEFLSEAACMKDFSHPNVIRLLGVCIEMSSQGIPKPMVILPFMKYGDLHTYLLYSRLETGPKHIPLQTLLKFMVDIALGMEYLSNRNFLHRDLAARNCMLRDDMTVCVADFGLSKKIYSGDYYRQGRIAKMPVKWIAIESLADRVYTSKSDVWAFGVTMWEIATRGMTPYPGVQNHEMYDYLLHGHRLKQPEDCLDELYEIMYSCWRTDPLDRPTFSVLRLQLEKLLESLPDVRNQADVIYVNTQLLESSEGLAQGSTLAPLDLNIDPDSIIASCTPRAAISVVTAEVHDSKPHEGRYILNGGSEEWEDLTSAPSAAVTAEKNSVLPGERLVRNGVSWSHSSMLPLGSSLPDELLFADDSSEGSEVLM
# Procedure, shortened: as §1
Structure (SMILES),IC50 [1] [nM],IC50 [2] [nM],FLT3/Mer ratio (FLT3 IC50/Mer IC50) [2]
COC[C@H](C)Nc1ncc2c(-c3ccnc(N4CCN(C)CC4)c3)cc([C@H]3CC[C@H](O)CC3)n2n1 [Compound 256],100 to 1000,≤ 100,+++ (“+++” represents a ratio of >100)
COC[C@H](C)Nc1ncc2c(-c3cccc(CN4CCN(C)CC4)c3)cc([C@H]3CC[C@H](O)CC3)n2n1 [Compound 218],100 to 1000,≤ 100,+++ (“+++” represents a ratio of >100)
COCC[C@@H](C)Nc1ncc2c(-c3ccc(CN4CCOCC4)cc3)cc([C@H]3CC[C@H](O)CC3)n2n1 [Compound 212],1000 to 10000,≤ 100,++ (“++” represents a ratio of between 10 and 100)
COC[C@H](C)Nc1ncc2c(-c3cncc(S(C)(=O)=O)c3)cc([C@H]3CC[C@H](O)CC3)n2n1 [Compound 194],1000 to 10000,≤ 100,+++ (“+++” represents a ratio of >100)
"COC[C@H](C)Nc1ncc2c(-c3cn(C)nn3)cc([C@H]3CC[C@H](O)CC3)n2n1 [Compound 250, (trans)-4-(2-(((S)-1-methoxypropan-2-yl)amino)-5-(1-methyl-1H-1,2,3-triazol-4-yl)pyrrolo[2,1-f][1,2,4]triazin-7-yl)cyclohexanol]",1000 to 10000,≤ 100,+++ (“+++” represents a ratio of >100)
COC[C@H](C)Nc1ncc2c(-c3ccc(C(=O)N4CCN(C)CC4)nc3)cc([C@H]3CC[C@H](O)CC3)n2n1 [Compound 226],100 to 1000,≤ 100,+++ (“+++” represents a ratio of >100)
